Test results taken from patent publication US5019584A, “Therapeutically active chloro substituted benzimidazole” (priority 1988, dated 1991).
Where two headings read alike, the source gives them in different places.

Key:
[1] = Inhibition of Gastric Acid Secretion in the Conscious Male Rat; assay type: in vivo, Sprague-Dawley; settings: in vivo, ratio ED50 iv/ED50 id, read-out: "Bioavailability" measured by the Rough Screening Model, Rat ED50 iv/ED50 id (%)
Protocol: (§1) Since the bioavailability model described above is time and labour intensive, and requires a large number of plasma analyses, also a rough screening model, based on relative potencies to inhibit acid secretion, has been used (see for instance: A. Goth, Medical Pharmacology, 7th ed., C. V. Mosby Company, Saint Louis 1974, p 19). Thus, the ratio (called "Bioavailability" in Table 3) between the ED50 at intravenous administration and the ED50 at intraduodenal administration was calculated.
(§2) The potency for inhibition of acid secretion has been measured in the male rat and the dog, both intravenously and intraduodenally. When it comes to relevance of the animal test data for potency of a given compound in man for the present type of compounds, it is believed that potency in man will correspond to a level somewhere between what is measured in the male rat and what is measured in the dog.
(§3) Inhibition of Gastric Acid Secretion in the Conscious Male Rat.
(§4) Male rats of the Sprague-Dawley strain were used. They were equipped with cannulated fistulae in the stomach (lumen) and the upper part of the duodenum, for collection of gastric secretions and administration of test substances, respectively. A fourteen days recovery period after surgery was allowed before testing commenced.
(§5) Before secretory tests, the animals were deprived of food but not water for 20 h. The stomach was repeatedly washed through the gastric cannula, and 6 ml of Ringer-Glucose given s.c. Acid secretion was stimulated with a infusion during 3.5 h (1.2 ml/h, s.c.) of pentagastrin and carbachol (20 and 110 nmol/kg h, respectively), during which time gastric secretions were collected in 30-min fractions. Test substances or vehicle were given iv or id at 90 min after starting the stimulation, in a volume of 1 ml/kg. Gastric juice samples were titrated to pH 7.0 with NaOH, 0.1 mol/L, and acid output calculated as the product of titrant volume and concentration. Further calculations were based on group mean responses from 4-5 rats. The acid output during the periods after administration of test substances or vehicle were expressed as fractional responses, setting the acid output in the 30-min period preceding administration to 1.0. Percentage inhibition was calculated from the fractional responses elicited by test compound and vehicle. ED50 values were obtained from graphical interpolation on log dose-response curves, or estimated from single-dose experiments assuming a similar slope for all dose-response curves. An estimation of the bioavailability was obtained by calculating the ratio ED50 iv /ED50 id. The results reported are based on gastric acid secretion during the second hour after drug/vehicle administration.

[2] = tested on: gastric acid secretion (stimulated with pentagastrin and carbachol); test: as above; assay type: in vivo, Sprague-Dawley; settings: 2 h, acid secretion during second hour after administration
Protocol: as §1, §2, §3, §4, §5

[3] = tested on: gastric acid secretion (stimulated with histamine dihydrochloride); test: Inhibition of Gastric Acid Secretion in the Conscious Dog; assay type: in vivo, Harrier dog, either sex; settings: for ED50: Canis lupus familiaris, dog, acid output 2 h after dosing
Protocol: as §2
Inhibition of Gastric Acid Secretion and Bioavailability in the Conscious Dog.
Harrier dogs of either sex were used. They were equipped with a duodenal fistula for the administration of test compounds or vehicle and a cannulated ventricular fistula for the collection of gastric secretions.
Before secretory tests the animals were fasted for about 18 h but water was freely allowed. Gastric acid secretion was stimulated by a 4 h infusion of histamine dihydrochloride (12 ml/h) at a dose producing about 80% of the individual maximal secretory response, and gastric juice collected in consecutive 30-min fractions. Test substance or vehicle was given id or iv 1 h after starting the histamine infusion, in a volume of 0.5 ml/kg body weight. The acidity of the gastric juice samples were determined by titration to pH 7.0, and the acid output calculated. The acid output in the collection periods after administration of test substance or vehicle were expressed as fractional responses, setting the acid output in the fraction preceding administration to 1.0. Percentage inhibition was calculated from fractional responses elicited by test compound and vehicle. ED50 --values were obtained by graphical interpolation on log dose-response curves, or estimated from single-dose experiments under the assumption of the same slope of the dose-response curve for all test compounds. All results reported are based on acid output 2 h after dosing.

[4] = Bioavailability in the Male Rat (AUC method); assay type: in vivo, Sprague-Dawley; settings: blood, 4 umol/kg, AUC id vs iv, 4 μmol/kg, read-out: Bioavailability measured by the AUL-method, F %, Rat
Protocol: Bioavailability is assessed by calculating the quotient between the area under plasma concentration (AUC) curve following intraduodenal (id) administration and intravenous (iv) administration from the rat or the dog. Low, therapeutically relevant doses, were used. This method is scientifically recognized as valid for assessing bioavailability (see for instance: M. Rowland and T.N. Tozer, Clinical Pharmacokinetics, 2nd ed., Lea & Febiger, London 1989, p 42). Bioavailability in the Male Rat. Male adult rats of the Sprague-Dawley strain were used. One day, prior to the experiments, all rats were prepared by cannulation of the left carotid artery under anaesthesia. The rats used for the intravenous experiments, were also cannulated in the jugular vein. (Ref. V Popovic and P Popovic, J Appl Physiol 1960;15,727-728). The rats used for the intraduodenal experiments, were also cannulated in the upper part of the duodenum. The cannulas were exteriorized at the nape of the neck. […] The area under the blood concentration vs time curve, AUC, was determined by the linear trapezoidal rule and extrapolated to infinity by dividing the last determined blood concentration by the elimination rate constant in the terminal phase. The systemic bioavailability (F %) following intraduodenal administration was calculated as [formula]

[5] = Chemical Stability in aqueous buffer solution at pH 7; assay type: physicochemical; settings: pH 7, 37° C., low concentration; for half-life: read-out: Chemical Stability at pH 7, half-life (t 1/2) (converted)
Protocol: The chemical stability of various compounds of the invention has been followed kinetically at low concentration at 37° C. in aqueous buffer solution at different pH values. The results in Table 3 show the half life (t 1/2) at pH 7, that is the time period after which half the amount of the original compound remains unchanged.

[6] = route id (intraduodenal), read-out: Inhibition of acid secretion, Rat ED50, id
[7] = route iv, read-out: Inhibition of acid secretion, Rat ED50, iv
[8] = route id (intraduodenal), Ref. value: estimated from one dog (footnote 1), read-out: Inhibition of acid secretion, Dog ED50, id

Row | bioavailability [1] | bioavailability [4] | Chemical Stability at pH 7, half-life (t 1/2) [5] | half-life [5] | Compound | ED50 [2, 6] | ED50 [2, 7] | ED50 [3, 8] | ED50 ([3]; route iv, Example 1 value: only one dog (footnote 2), read-out: Inhibition of acid secretion, Dog ED50, iv) | effect on acid secretion at 1.0 μmol/kg ([3]; Dog 1, 1.0 μmol/kg, id) | inhibition of acid secretion at 2.0 μmol/kg ([3]; Dog 2, 2.0 μmol/kg, id)
1 | 50% | 97% | 30 h | 30 h | COc1ccnc(C[S+]([O-])c2nc3cc(Cl)ccc3[nH]2)c1OC (centres unmarked) [Example 1, 5-chloro-2-[[(3,4-dimethoxy-2-pyridinyl)methyl]sulfinyl]-1H-benzimidazole] | 2.6 µmol/kg | 1.3 µmol/kg | 1.2 µmol/kg | 1.75 µmol/kg |  | 
2 | 49% | 47% | 58 h | 58 h | COc1ccnc(C[S+]([O-])c2nc3cc(F)ccc3[nH]2)c1OC (centres unmarked) [Ref., 5-fluoro-2-[[(3,4-dimethoxy-2-pyridinyl)methyl]sulfinyl]-1H-benzimidazole] | 1.75 µmol/kg | 0.85 µmol/kg | 1.1 µmol/kg |  | no effect | 70%
